From patent publication US20260354378A1, “OIL-IN-WATER EMULSION FORMULATION, A PROCESS FOR ITS PREPARATION AND ITS USE AS HERBICIDE” (priority 2022, published 2026)
Where a name gives a salt, the structure may show the parent alone.

How the values were obtained:
[1] = Solubility in the organic solvent Solvesso 200ND; assay type: physicochemical; conditions: room temperature
Method: (§1) As a preliminary step, solubility tests were performed to determine the ability of Aminopyralid potassium salt used as herbicide B to dissolve in the organic solvent Solvesso 200ND and the oil phase of the emulsion disclosed in US 2011/0092367 A1, page 11, paragraphs [0141] and [0142].
The solubility was measured in a test tube at room temperature. 0.10 g of Aminopyralid potassium salt was placed in the test tube. First, 1 g of the organic solvent (Solvesso 200 ND) was added. The amount of the organic solvent (Solvesso 200 ND) was then increased in several steps to 10 g. […] The solubility of Aminopyralid Potassium salt in Solvesso 200ND was visually determined to be less than 1%.

[2] = Solubility in the oil phase of the emulsion of US 2011/0092367 A1; assay type: physicochemical; conditions: Solvesso 200 ND, Wettol EM 1, Wettol EM 31 per Table 9
Method: as §1
The organic solvent (Solvesso 200 ND), calcium dodecylbenzene sulfonate (Wettol EM 1) and castor oil ethoxylate (Wettol EM 31) were mixed in the amounts given in Table 9. After mixing, it was not soluble in said mixture. After further adding dimethenamid-P in the amount given in Table 9, solubility of the Aminopyralid potassium salt could not be increased. In summary, Aminopyralid potassium salt (herbicide B) was not soluble in the oil phase of the emulsion as disclosed in US 2011/0092367 A1 (see page 11, paragraphs [0141] and [0142]).

Nc1cc(Cl)nc(C(=O)O)c1Cl [Aminopyralid potassium salt, 4-amino-3,6-dichloro-2-pyridinecarboxylic acid]
Solubility in Solvesso 200 ND (visual observation) ([1]; 0.10 g in 1 g to 10 g solvent, magnetic stirrer): poor solubility | Solubility in Solvesso 200ND ([1]; visually determined): less than 1% | Solubility in the oil phase of the emulsion of US 2011/0092367 A1 [2]: not soluble
